In ChEMBL document CHEMBL3758078, “Modification of the anabaseine pyridine nucleus allows achieving binding and functional selectivity for the α3β4 nicotinic acetylcholine receptor subtype” (Eur J Med Chem, 2016):
Calls of active or inactive are those of the source. No cut-off for these calls is given here.

Assays:
[1] = molecular target: T1, Neuronal acetylcholine receptor; alpha3/beta4 (Homo sapiens, UniProt P30926+P32297); experiment: Displacement of [3H]-epibatidine from human alpha3beta4 nACh receptor expressed in HEK293 cells preincubated for 5 mins followed by radioligand addition by beta counting analysis; type: cell-based
T1 sequence (P30926 whole entry): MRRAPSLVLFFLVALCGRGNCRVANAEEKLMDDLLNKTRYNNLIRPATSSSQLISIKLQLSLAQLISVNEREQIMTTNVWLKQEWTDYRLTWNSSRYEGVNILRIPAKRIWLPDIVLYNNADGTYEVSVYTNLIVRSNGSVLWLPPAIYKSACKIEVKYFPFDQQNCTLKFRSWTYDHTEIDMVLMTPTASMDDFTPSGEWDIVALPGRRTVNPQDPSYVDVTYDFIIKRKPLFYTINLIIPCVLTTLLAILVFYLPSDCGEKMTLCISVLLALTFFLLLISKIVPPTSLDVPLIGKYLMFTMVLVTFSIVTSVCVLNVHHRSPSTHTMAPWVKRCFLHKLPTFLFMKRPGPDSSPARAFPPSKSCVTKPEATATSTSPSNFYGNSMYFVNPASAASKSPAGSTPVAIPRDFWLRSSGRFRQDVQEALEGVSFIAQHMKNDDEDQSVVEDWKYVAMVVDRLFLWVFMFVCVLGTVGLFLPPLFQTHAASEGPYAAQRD
T1 sequence (P32297 whole entry): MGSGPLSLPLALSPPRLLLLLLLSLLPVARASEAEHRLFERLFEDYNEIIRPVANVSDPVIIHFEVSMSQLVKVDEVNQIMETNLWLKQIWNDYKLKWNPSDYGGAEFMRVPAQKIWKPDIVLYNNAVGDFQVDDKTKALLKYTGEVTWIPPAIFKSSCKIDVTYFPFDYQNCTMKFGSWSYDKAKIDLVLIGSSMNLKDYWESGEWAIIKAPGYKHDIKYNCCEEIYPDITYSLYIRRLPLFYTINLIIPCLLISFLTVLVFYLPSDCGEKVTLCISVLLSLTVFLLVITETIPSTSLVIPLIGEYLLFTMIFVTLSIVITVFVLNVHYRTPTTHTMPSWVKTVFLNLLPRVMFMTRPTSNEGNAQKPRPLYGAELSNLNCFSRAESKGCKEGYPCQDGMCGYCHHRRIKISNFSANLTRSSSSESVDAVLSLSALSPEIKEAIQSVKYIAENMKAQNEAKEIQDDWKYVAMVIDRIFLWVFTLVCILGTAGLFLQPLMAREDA

[2] = molecular target: Neuronal acetylcholine receptor; alpha4/beta2 (Rattus norvegicus, UniProt P09483+P12390); experiment: Displacement of [3H]-epibatidine from rat alpha4beta2 nACh receptor expressed in rat cortical membrane preincubated for 30 mins followed by radioligand addition by […] analysis; type: cell membranes
Sequence of Neuronal acetylcholine receptor; alpha4/beta2 (P09483 whole entry): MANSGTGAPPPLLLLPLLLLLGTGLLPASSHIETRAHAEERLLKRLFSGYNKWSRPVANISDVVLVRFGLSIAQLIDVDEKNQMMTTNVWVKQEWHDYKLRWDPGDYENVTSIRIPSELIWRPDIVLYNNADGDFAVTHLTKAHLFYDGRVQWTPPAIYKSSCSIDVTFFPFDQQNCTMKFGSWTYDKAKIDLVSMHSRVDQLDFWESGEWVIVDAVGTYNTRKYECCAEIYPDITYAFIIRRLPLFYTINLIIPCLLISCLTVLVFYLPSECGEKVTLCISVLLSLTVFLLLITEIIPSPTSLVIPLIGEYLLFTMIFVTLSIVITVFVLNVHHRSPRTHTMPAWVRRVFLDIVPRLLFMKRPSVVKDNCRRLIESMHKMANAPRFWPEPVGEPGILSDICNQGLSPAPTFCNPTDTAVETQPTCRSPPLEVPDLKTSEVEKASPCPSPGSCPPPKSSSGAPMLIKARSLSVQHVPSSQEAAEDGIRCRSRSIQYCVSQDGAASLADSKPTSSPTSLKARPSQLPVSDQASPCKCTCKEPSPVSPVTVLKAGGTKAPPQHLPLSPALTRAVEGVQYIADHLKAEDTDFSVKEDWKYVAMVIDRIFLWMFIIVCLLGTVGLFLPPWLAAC
Sequence of Neuronal acetylcholine receptor; alpha4/beta2 (P12390 whole entry): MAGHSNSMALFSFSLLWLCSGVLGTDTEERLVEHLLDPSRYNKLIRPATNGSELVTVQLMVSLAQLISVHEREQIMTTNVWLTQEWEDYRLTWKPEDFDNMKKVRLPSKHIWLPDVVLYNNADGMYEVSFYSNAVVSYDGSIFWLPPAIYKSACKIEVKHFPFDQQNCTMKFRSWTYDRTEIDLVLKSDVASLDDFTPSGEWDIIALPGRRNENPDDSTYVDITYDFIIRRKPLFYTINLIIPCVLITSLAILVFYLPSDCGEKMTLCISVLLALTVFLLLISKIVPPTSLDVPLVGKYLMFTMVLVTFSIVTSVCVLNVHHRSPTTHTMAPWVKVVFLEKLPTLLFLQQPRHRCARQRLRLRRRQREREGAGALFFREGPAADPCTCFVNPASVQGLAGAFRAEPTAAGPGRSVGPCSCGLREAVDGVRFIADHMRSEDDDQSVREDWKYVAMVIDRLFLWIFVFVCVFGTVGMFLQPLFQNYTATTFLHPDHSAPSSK

[3] = molecular target: Neuronal acetylcholine receptor subunit alpha-7 (Rattus norvegicus, UniProt Q05941); experiment: Displacement of [125I] alpha bungarotoxin from rat alpha7 nACh receptor expressed in rat hippocampal membrane preincubated for 30 mins followed by radioligand addition by gamma counting analysis; type: cell membranes, Hippocampus
Sequence of Neuronal acetylcholine receptor subunit alpha-7 (Rattus norvegicus, UniProt Q05941) (Q05941 whole entry): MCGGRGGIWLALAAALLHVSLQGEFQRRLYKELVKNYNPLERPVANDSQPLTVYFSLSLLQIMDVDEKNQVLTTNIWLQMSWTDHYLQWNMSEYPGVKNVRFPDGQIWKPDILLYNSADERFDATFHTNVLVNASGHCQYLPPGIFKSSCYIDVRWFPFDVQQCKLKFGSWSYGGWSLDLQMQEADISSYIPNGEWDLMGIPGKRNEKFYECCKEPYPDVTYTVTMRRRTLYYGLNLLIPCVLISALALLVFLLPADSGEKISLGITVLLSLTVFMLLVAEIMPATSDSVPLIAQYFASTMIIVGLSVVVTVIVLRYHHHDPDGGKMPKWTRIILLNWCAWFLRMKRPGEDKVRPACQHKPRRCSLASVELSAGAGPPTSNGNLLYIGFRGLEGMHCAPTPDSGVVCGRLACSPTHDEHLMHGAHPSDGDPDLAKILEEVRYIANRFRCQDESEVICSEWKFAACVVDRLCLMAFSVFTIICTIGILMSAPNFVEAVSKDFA

[4] = species: Homo sapiens; experiment: Selectivity ratio of Ki for rat alpha4beta2 nACh receptor to Ki for human alpha3beta4 nACh receptor
[5] = species: Homo sapiens; experiment: Selectivity ratio of Ki for rat alpha7 nACh receptor to Ki for human alpha3beta4 nACh receptor
[6] = molecular target: T2, Neuronal acetylcholine receptor subunit alpha-7 (Homo sapiens, UniProt P36544); experiment: Agonist activity at human alpha7 nACh receptor expressed in rat GH4C1 cells assessed as increase in current amplitudes after 2 to 3 days by patch clamp assay; type: cell-based, GH4-C1
T2 sequence (P36544 whole entry): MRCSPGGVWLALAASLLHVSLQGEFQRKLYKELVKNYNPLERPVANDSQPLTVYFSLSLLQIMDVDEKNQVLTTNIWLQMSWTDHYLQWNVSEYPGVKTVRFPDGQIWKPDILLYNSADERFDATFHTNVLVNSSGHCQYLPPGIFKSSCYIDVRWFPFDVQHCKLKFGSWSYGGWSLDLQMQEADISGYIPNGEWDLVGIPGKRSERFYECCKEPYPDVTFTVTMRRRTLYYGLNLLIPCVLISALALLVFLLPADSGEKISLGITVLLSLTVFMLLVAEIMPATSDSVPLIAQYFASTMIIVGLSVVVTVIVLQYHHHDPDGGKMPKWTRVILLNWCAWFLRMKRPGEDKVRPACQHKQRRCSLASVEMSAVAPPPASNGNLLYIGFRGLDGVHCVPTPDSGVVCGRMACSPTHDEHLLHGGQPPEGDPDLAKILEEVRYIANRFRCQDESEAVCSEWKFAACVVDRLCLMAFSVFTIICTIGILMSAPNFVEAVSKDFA

[7] = molecular target: T1, Neuronal acetylcholine receptor; alpha3/beta4; experiment: Agonist activity at human alpha3beta4 nACh receptor expressed in rat GH4C1 cells assessed as increase in current amplitudes after 2 to 3 days by patch clamp assay; type: cell-based, GH4-C1
[8] = molecular target: T3, Neuronal acetylcholine receptor; alpha4/beta2 (Homo sapiens) (UniProt P17787+P43681); experiment: Agonist activity at human alpha4beta2 nACh receptor expressed in rat […] cells assessed as increase in current amplitudes at 0.1 to 100 uM after 2 to 3 days by patch clamp assay; type: cell-based
[9] = molecular target: T1, Neuronal acetylcholine receptor; alpha3/beta4; experiment: Agonist activity at human alpha3beta4 nACh receptor expressed in rat […] cells assessed as increase in current amplitudes at 0.1 to 100 uM after 2 to 3 days by patch clamp assay relative to acetylcholine; type: cell-based
[10] = molecular target: T2, Neuronal acetylcholine receptor subunit alpha-7; experiment: Agonist activity at human alpha7 nACh receptor expressed in rat GH4C1 cells assessed as increase in current amplitudes at 0.1 to 100 uM after 2 to 3 days by patch clamp assay; type: cell-based; conditions: GH4-C1
[11] = molecular target: T3, Neuronal acetylcholine receptor; alpha4/beta2 (Homo sapiens); experiment: Antagonist activity at human alpha4beta2 nACh receptor; type: protein-complex assay
[12] = molecular target: T1, Neuronal acetylcholine receptor; alpha3/beta4; experiment: Antagonist activity at human alpha3beta4 nACh receptor; type: protein-complex assay

Q: For OCc1cccc(C2=NCCCC2)c1, which Ki [1] is on record?
A: Its Ki is 80 nM.

Q: What about the Ki [2] of the same compound?
A: Its Ki is 35000 nM.

Q: And the Ki [3]?
A: Its Ki is 158 nM.

Q: What about the Ratio Ki [4] of the same compound?
A: The Ratio Ki was 438.

Q: And the Ratio Ki [5]?
A: The Ratio Ki was 2.

Q: And the EC50 [6]?
A: Its EC50 is 60000 nM.

Q: What about the EC50 [7] of the same compound?
A: The EC50 was 20000 nM.

Q: For Cc1cccc(C2=NCCCC2)c1, which Ki [1] is on record?
A: The Ki was 155 nM.

Q: What about the Ki [2] of the same compound?
A: Its Ki is 1450 nM.

Q: What about the Ki [3] of the same compound?
A: Its Ki is 384 nM.

Q: What about the Ratio Ki [4] of the same compound?
A: The Ratio Ki was 9.4.

Q: What about the Ratio Ki [5] of the same compound?
A: Its Ratio Ki is 2.5.

Q: With Oc1cccc(C2=NCCCC2)c1 as the compound, how does the Ki [1] read?
A: The Ki was 680 nM.

Q: And the Ki [2]?
A: Its Ki is 32000 nM.

Q: And the Ki [3]?
A: The Ki was 9300 nM.

Q: And the Ratio Ki [4]?
A: The Ratio Ki was 47.

Q: What about the Ratio Ki [5] of the same compound?
A: The Ratio Ki was 14.

Q: Brc1cccc(C2=NCCCC2)c1 was tested. Which Ki [1] did it give?
A: The Ki was 29.8 nM.

Q: What about the Ki [2] of the same compound?
A: The Ki was 5020 nM.

Q: What about the Ki [3] of the same compound?
A: Its Ki is 43.2 nM.

Q: What about the Ratio Ki [4] of the same compound?
A: The Ratio Ki was 168.

Q: What about the Ratio Ki [5] of the same compound?
A: Its Ratio Ki is 1.5.

Q: For Ic1cccc(C2=NCCCC2)c1, which Ki [1] is on record?
A: The Ki was 4.7 nM.

Q: And the Ki [2]?
A: Its Ki is 3790 nM.

Q: And the Ki [3]?
A: The Ki was 11.3 nM.

Q: And the Ratio Ki [4]?
A: Its Ratio Ki is 806.

Q: And the Ratio Ki [5]?
A: The Ratio Ki was 2.4.

Q: And the Activity [8]?
A: Its Activity is “inactive”.

Q: And the Emax [9]?
A: Its Emax is 60%.

Q: What about the Activity [10] of the same compound?
A: Its Activity is “inactive”.

Q: What about the inhibition [11] of the same compound?
A: The inhibition was “inactive”.

Q: And the inhibition [12]?
A: Its inhibition is “inactive”.

Q: How did the Ki [1] turn out when c1cncc(C2=NCCCC2)c1 [ANABASEINE] was run?
A: The Ki was 107 nM.

Q: What about the Ki [2] of the same compound?
A: Its Ki is 67 nM.

Q: What about the Ki [3] of the same compound?
A: Its Ki is 32 nM.

Q: What about the Ratio Ki [4] of the same compound?
A: Its Ratio Ki is 0.6.

Q: And the Ratio Ki [5]?
A: The Ratio Ki was 0.3.

Q: For OCc1cc(F)cc(C2=NCCCC2)c1, which Ki [1] is on record?
A: Its Ki is 80 nM.

Q: And the Ki [2]?
A: Its Ki is 744 nM.

Q: What about the Ki [3] of the same compound?
A: Its Ki is 821 nM.

Q: What about the Ratio Ki [4] of the same compound?
A: The Ratio Ki was 9.3.

Q: And the Ratio Ki [5]?
A: Its Ratio Ki is 10.

Q: How did the Ki [1] turn out when Brc1cc(Br)cc(C2=NCCCC2)c1 was run?
A: The Ki was 70.8 nM.

Q: What about the Ki [2] of the same compound?
A: The Ki was 18800 nM.

Q: What about the Ki [3] of the same compound?
A: The Ki was 343 nM.

Q: What about the Ratio Ki [4] of the same compound?
A: The Ratio Ki was 266.

Q: And the Ratio Ki [5]?
A: Its Ratio Ki is 4.8.

Q: And the inhibition [11]?
A: The inhibition was “inactive”.

Q: And the inhibition [12]?
A: Its inhibition is “inactive”.

Q: What does the source list for OCc1cccc([C@H]2C[C@@H]3CC[C@H]2N3)c1 (racemic)?
A: Ki [1]: 92 nM; Ki [2]: 429 nM; Ki [3]: 1800 nM; Ratio Ki [4]: 4.7; Ratio Ki [5]: 20

Q: For Fc1cc(Br)cc(C2=NCCCC2)c1, which Ki [1] is on record?
A: Its Ki is 48 nM.

Q: And the Ki [2]?
A: The Ki was 1770 nM.

Q: What about the Ki [3] of the same compound?
A: The Ki was 204 nM.

Q: What about the Ratio Ki [4] of the same compound?
A: Its Ratio Ki is 37.

Q: What about the Ratio Ki [5] of the same compound?
A: The Ratio Ki was 4.3.

Q: Clc1cccc(C2=NCCCC2)c1 was tested. Which Ki [1] did it give?
A: Its Ki is 77.2 nM.

Q: What about the Ki [2] of the same compound?
A: The Ki was 11500 nM.

Q: And the Ki [3]?
A: Its Ki is 394 nM.

Q: And the Ratio Ki [4]?
A: Its Ratio Ki is 149.

Q: And the Ratio Ki [5]?
A: Its Ratio Ki is 5.1.

Q: For c1ccc(C2=NCCCC2)cc1, which Ki [1] is on record?
A: The Ki was 194 nM.

Q: What about the Ki [2] of the same compound?
A: Its Ki is 2080 nM.

Q: And the Ki [3]?
A: Its Ki is 2400 nM.

Q: And the Ratio Ki [4]?
A: The Ratio Ki was 11.

Q: What about the Ratio Ki [5] of the same compound?
A: The Ratio Ki was 12.

Q: Which Ki [1] does the source give for Fc1cccc(C2=NCCCC2)c1 here?
A: Its Ki is 108 nM.

Q: What about the Ki [2] of the same compound?
A: Its Ki is 2040 nM.

Q: And the Ki [3]?
A: The Ki was 2370 nM.

Q: And the Ratio Ki [4]?
A: The Ratio Ki was 19.

Q: What about the Ratio Ki [5] of the same compound?
A: The Ratio Ki was 22.

Q: Which Ki [1] does the source give for Oc1cccc([C@H]2C[C@@H]3CC[C@H]2N3)c1 (racemic) here?
A: The Ki was 80 nM.

Q: What about the Ki [2] of the same compound?
A: Its Ki is 127 nM.

Q: What about the Ki [3] of the same compound?
A: Its Ki is 609 nM.

Q: What about the Ratio Ki [4] of the same compound?
A: Its Ratio Ki is 1.6.

Q: What about the Ratio Ki [5] of the same compound?
A: Its Ratio Ki is 7.6.
